Source: patent publication US20190119284A1, “ErbB Inhibitors and Uses Thereof” (The Regents of the University of California, priority 2016, published 2019)

Columns and labels:
HER2 kinase domain = target: T1, HER2 kinase domain (Homo sapiens, UniProt P04626); assay: In vitro HER2 Kinase Assay; format: biochemical; conditions: 50 μM ATP
T1 construct: In vitro kinase assays with the HER2 kinase domain (SignalChem) were performed in triplicate; purchased SignalChem
Description: In vitro HER2 Kinase Assay. In vitro kinase assays with the HER2 kinase domain (SignalChem) were performed in triplicate as follows. To 9 μL of a 2.5× solution of kinase and substrate in reaction buffer was added 3 μL of a 5× DMSO or inhibitor dilution in 10% DMSO:water. The inhibitor/kinase solution was incubated at room temperature for 10 minutes. The kinase assay was initiated by the addition of 3 μL of a 5× solution of ATP, and ran for 15 minutes. The final reaction conditions were 50 mM Tris (pH7.4), 5 mM MnCl2, 0.01% Tween-20, 2 mM DTT, 100 μM E4Y substrate (SignalChem), 15 nM HER2, 2% DMSO, 50 μM ATP, and 1 μCi γ^32P-ATP. After 15 minutes, 3 μL of each reaction was pipetted onto phosphocellulose sheets (P81, Whatman) and allowed to dry. The sheets were then washed 4×5 min with a solution of 0.5% phosphoric acid, dried, and exposed to a phosphor screen overnight. Phosphorimaging was conducted on a Typhoon 9500, image intensities were quantified in ImageQuant 5.2, normalized to the DMSO control and plotted in GraphPad Prism 6.

[1] = system: wt or T787M HER3 kinase domain; assay: Thermofluor stabilization of HER3 kinase domain; format: binding; conditions: HER3 T787M vs wt kinase domain
From the text: FIGS. 4A-4F. Compound 2 is a selective Type I inhibitor for HER2. […] FIG. 4B: Thermal stabilization of the HER3 kinase domain by either compound 2 or ATP as determined by Thermofluor (mean±SD, n=3). FIGS. 4C-4D: The crystal structure of either erlotinib (FIG. 4C) or 2 (FIG. 4D) bound to EGFR V924R. The kinase domain in complex with compound 2 has been stabilized in the active confirmation by drug binding, despite the mutation—as evidenced by the ordered extension of the activation loop and the inward positioning of the α-C helix.
FIGS. 12A-12B. […] FIG. 12A. […] FIG. 12B. Stabilization of either wt or T787M HER3 kinase domain by compound 2 compared to DMSO as determined by thermofluor (mean value±SD, n=2).

ALK = ALK (Homo sapiens, UniProt Q9UM73); assay: Nanosyn in vitro kinase profiling: ALK; format: biochemical
Description: (§1) This was confirmed by in vitro profiling against a panel of kinases, with compound 2 only showing potent inhibition of EGFR and Ab1 (Table 2).
(§2) In vitro Kinome Screen. In vitro profiling of compound 2 at 100 nM was conducted by Nanosyn.

BLK = BLK (Homo sapiens, UniProt P51451); assay: Nanosyn in vitro kinase profiling: BLK; format: biochemical
Description: as §1, §2

TRKC = TRKC (Homo sapiens, UniProt Q16288); assay: Nanosyn in vitro kinase profiling: TRKC; format: biochemical
Description: as §1, §2

DYRK1B = DYRK1B (Homo sapiens, UniProt Q9Y463); assay: Nanosyn in vitro kinase profiling: DYRK1B; format: biochemical
Description: as §1, §2

FaDu cells = assay: 72 h proliferation of FaDu cells; format: cell-based
From the text: FIGS. 20A-20B. […] FIG. 20A. […] FIG. 20B.

MEK1 = MEK1 (Homo sapiens, UniProt Q02750); assay: Nanosyn in vitro kinase profiling: MEK1; format: biochemical; conditions: compound at 1 μM
PRKACA = PRKACA (Homo sapiens, UniProt P17612); assay: Nanosyn in vitro kinase profiling: PRKACA; format: biochemical; conditions: compound at 1 μM
[2] = system: HER2 overexpressing cell lines (BT-474, SK-BR-3); assay: cell death with CellTox green (Incucyte Zoom), 72 h +/- NRG; format: cell-based; conditions: BT-474 and SK-BR-3, 72 h +/- NRG
Description: FIGS. 15A-15C. NRG rescues HER2 overexpressing cell lines from type 1.5 inhibitors but not compound 3. FIG. 15A. BT-474 cells were treated with the indicated concentrations of drugs in the presence or absence of NRG for 72 h. Cell death was determined using CellTox green with the Incucyte Zoom data are represented as mean values±SD (n=3). FIG. 15B. Same experiment as in FIG. 15A, but with SK-BR-3 cells. c. Cells were treated with 1 μM of the indicated inhibitor in the presence of varying concentrations of NRG. The lapatininb data is reproduced from FIG. 1C (mean value±SD, n=3).

TYK2 = TYK2 (Homo sapiens, UniProt P29597); assay: Nanosyn in vitro kinase profiling: TYK2; format: biochemical; conditions: compound at 1 μM
CAMK4 = CAMK4 (Homo sapiens, UniProt Q16566); assay: Nanosyn in vitro kinase profiling: CAMK4; format: biochemical; conditions: compound at 1 μM
[3] = target: mutationally activated forms of EGFR (Homo sapiens, UniProt P00533, DEL746-750); assay: EGFR phosphosite signaling in NCI-H1650 cells; format: cell-based; set-up: endogenous in cells; host or cells: NCI-H1650 (A2); conditions: concentration giving near complete inhibition
MST2 = MST2 (Homo sapiens, UniProt Q13188); assay: Nanosyn in vitro kinase profiling: MST2; format: biochemical; conditions: compound at 1 μM
FAK = FAK (Homo sapiens, UniProt Q05397); assay: Nanosyn in vitro kinase profiling: FAK; format: biochemical; conditions: compound at 1 μM
[4] = system: HER2/HER3 signaling in CHL-1 cells; assay: HER2/HER3 signaling in CHL-1 cells; format: cell-based; conditions: compared with lapatinib
[5] = system: 2YFTM/HER3wt and 2YFTM/3TM Ba/F3 cells; assay: Ba/F3 proliferation assay, HER2 gatekeeper mutant lines; format: cell-based; conditions: Ba/F3 lines with methionine gatekeeper mutation in HER2
Description: Proliferation Assays. […] For all normalized assays, proliferation was normalized to the DMSO control condition. All graphs were plotted in GraphPad Prism 6 and fit with a non-linear regression of the log(inhibitor) vs response with a variable slope where shown. All graphs are averages (+/−standard deviation) of biological triplicates each performed in technical triplicate unless otherwise noted. If only one biological replicate was performed standard deviations were derived from the technical replicates.

Sequence of ALK (Q9UM73 19-1620, species assumed): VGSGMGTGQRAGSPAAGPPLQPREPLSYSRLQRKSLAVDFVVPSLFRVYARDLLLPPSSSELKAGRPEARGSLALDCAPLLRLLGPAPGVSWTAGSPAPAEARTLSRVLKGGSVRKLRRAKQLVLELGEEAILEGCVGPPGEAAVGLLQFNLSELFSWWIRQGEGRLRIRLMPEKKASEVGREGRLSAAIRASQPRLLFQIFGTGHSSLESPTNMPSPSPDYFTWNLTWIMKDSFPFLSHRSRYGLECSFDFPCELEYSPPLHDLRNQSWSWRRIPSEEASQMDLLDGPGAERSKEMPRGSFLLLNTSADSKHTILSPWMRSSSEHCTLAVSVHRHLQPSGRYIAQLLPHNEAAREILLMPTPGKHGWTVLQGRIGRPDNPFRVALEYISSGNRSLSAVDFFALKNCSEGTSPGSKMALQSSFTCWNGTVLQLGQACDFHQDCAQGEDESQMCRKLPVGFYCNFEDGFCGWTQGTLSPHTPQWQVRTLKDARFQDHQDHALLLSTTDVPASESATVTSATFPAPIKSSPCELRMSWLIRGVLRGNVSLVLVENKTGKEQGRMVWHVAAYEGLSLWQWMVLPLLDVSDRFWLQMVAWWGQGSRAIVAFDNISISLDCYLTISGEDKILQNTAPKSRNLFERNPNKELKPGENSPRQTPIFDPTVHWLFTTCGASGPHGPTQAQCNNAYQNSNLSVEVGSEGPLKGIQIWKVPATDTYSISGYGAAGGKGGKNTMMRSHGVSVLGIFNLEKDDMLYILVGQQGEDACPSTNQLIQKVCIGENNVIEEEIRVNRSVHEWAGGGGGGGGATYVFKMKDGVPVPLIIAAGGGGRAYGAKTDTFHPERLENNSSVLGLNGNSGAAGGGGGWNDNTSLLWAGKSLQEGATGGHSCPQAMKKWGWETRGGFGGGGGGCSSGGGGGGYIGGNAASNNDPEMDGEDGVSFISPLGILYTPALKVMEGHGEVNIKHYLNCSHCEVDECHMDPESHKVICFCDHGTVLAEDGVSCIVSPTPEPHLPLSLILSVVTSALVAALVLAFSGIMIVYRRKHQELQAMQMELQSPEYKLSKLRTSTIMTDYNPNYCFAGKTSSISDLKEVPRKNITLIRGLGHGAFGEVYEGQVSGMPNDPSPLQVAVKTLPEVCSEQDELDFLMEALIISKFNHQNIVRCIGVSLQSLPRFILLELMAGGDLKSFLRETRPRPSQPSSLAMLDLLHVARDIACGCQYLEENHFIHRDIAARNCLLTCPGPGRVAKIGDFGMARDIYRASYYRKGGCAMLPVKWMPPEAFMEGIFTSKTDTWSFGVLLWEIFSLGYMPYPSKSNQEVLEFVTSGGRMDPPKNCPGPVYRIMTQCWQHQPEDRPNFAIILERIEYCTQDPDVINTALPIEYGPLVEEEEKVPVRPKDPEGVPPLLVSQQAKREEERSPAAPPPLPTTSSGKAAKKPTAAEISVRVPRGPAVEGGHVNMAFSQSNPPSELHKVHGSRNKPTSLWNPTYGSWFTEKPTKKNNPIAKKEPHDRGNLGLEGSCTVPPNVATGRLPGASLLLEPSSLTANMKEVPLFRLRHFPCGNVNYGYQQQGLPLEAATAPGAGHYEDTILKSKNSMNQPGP
Sequence of BLK (P51451 whole entry): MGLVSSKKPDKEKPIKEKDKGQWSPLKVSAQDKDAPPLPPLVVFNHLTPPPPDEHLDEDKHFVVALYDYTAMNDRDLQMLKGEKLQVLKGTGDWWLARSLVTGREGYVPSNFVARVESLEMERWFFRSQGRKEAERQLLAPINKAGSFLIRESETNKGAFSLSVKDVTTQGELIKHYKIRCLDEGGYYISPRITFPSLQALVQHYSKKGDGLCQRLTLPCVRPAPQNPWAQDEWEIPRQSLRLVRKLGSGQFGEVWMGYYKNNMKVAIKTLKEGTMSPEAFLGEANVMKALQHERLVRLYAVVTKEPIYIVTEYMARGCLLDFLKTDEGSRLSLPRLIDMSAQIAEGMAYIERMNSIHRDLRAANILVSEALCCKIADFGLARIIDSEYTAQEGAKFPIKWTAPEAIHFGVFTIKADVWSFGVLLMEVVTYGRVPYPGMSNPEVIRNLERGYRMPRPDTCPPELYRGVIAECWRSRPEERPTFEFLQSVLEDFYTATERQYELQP
Sequence of DYRK1B (Q9Y463 whole entry, species assumed): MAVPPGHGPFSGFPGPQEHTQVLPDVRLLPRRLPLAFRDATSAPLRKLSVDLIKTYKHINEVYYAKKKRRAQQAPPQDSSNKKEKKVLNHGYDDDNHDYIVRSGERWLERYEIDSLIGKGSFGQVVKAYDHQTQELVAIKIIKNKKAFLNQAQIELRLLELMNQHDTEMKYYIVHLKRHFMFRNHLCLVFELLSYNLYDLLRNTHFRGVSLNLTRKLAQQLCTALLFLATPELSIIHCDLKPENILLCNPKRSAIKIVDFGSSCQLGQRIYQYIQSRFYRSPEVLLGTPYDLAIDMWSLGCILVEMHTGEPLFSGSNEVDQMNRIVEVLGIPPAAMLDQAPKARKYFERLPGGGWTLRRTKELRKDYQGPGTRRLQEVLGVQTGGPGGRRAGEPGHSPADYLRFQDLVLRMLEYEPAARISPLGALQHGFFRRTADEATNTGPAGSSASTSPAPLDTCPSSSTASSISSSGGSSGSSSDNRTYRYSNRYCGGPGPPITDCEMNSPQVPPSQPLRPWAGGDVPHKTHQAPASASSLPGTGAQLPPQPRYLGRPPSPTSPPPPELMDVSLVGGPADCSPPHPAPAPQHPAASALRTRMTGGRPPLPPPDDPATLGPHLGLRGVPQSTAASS
Sequence of TRKC (Q16288 32-839): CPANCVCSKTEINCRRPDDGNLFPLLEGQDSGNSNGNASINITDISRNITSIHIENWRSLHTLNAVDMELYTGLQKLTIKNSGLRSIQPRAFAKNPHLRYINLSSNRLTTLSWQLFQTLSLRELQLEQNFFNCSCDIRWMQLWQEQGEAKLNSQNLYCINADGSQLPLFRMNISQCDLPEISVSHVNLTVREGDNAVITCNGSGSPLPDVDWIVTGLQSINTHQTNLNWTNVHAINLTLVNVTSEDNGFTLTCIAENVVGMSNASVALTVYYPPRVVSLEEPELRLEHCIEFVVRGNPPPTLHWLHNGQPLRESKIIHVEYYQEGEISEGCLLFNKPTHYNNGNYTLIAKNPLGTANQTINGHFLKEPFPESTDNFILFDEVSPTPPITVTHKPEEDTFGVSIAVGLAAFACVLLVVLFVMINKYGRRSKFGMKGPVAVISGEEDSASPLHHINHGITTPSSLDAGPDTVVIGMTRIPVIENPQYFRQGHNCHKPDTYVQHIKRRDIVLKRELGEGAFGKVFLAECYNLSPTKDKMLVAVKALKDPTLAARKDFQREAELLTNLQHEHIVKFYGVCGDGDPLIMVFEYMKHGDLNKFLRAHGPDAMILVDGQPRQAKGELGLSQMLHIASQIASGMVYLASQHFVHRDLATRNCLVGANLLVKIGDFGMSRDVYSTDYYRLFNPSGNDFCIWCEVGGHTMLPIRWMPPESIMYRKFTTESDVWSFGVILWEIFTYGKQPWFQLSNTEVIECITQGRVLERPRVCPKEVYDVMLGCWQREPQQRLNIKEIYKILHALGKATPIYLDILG
Sequence of FAK (Q05397 whole entry, species assumed): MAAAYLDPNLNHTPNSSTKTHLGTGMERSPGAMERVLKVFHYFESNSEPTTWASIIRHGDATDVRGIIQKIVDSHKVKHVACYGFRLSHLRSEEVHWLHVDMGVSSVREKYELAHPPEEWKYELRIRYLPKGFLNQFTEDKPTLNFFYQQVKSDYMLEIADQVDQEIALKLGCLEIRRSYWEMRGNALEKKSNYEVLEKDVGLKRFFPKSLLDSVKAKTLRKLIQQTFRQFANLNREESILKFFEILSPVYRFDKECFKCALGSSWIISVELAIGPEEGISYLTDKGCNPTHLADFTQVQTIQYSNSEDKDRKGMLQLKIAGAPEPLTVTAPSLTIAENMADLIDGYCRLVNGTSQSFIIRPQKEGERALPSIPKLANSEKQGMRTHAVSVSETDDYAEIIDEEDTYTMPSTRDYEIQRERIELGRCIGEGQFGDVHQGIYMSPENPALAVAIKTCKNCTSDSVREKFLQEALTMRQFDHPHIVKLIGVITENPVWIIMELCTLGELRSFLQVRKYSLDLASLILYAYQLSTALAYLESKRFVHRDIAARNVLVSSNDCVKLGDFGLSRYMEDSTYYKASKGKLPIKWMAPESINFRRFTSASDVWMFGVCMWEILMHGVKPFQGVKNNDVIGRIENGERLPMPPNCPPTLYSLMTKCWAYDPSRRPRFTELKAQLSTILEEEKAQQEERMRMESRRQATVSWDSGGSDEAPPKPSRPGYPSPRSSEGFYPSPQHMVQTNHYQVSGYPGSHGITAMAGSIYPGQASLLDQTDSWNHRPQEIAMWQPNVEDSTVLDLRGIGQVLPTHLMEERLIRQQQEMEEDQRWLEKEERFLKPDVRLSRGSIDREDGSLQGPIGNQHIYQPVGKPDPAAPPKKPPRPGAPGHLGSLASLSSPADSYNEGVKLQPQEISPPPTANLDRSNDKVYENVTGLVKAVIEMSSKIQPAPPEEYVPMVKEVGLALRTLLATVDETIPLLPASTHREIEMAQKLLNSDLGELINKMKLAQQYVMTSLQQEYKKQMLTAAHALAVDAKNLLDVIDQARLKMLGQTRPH
Sequence of CAMK4 (Q16566 whole entry, species assumed): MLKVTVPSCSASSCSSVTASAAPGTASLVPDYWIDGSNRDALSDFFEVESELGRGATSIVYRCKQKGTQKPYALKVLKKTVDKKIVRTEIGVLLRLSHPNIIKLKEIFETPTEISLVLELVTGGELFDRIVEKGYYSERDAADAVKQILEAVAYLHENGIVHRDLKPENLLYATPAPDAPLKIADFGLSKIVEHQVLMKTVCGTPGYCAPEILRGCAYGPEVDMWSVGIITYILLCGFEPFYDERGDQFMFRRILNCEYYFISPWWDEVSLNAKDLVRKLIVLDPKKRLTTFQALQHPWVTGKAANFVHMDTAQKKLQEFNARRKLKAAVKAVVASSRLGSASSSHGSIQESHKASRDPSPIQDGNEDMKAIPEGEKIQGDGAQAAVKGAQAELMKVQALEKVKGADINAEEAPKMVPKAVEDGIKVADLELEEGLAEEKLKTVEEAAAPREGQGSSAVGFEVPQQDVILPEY

Q: What does the source list for `COc1ccc(-c2ccco2)cc1Nc1ncnc2[nH]nc(-c3ccco3)c12` [compound 2, 3-(furan-2-yl)-N-(5-(furan-2-yl)-2-methoxyphenyl)-1H-pyrazolo[3,4-d]pyrimidin-4-amine]?
A: potency against HER2 in vitro (HER2 kinase domain): equipotent to lapatinib; effect of gatekeeper mutation on binding affinity [1]: reduces the binding affinity; inhibition at 0.1 µM (ALK; compound at 100 nM): 6.14%; inhibition at 1 µM (ALK; compound at 1 μM): 19.8%; inhibition at 0.1 µM (BLK; compound at 100 nM): 59.9%; inhibition at 1 µM (BLK; compound at 1 μM): 90.4%; inhibition at 0.1 µM (TRKC; compound at 100 nM): 15.7%; inhibition at 1 µM (TRKC; compound at 1 μM): 46.9%; inhibition at 0.1 µM (DYRK1B; compound at 100 nM): 4.01%; inhibition at 1 µM (DYRK1B; compound at 1 μM): 22.6%

Q: `COc1ccc(-c2ccoc2)cc1Nc1ncnc2[nH]cc(-c3cc[nH]n3)c12` [compound 3, N-(5-(furan-3-yl)-2-methoxyphenyl)-5-(1H-pyrazol-3-yl)-7H-pyrrolo[2,3-d]pyrimidin-4-amine] was tested. Which “inhibition of proliferation relative to current HER2 inhibitors” value (FaDu cells) did it give?
A: more effective than current HER2 inhibitors

Q: And the inhibition at 1 µM (MEK1)?
A: 66%

Q: And the inhibition at 1 µM (PRKACA)?
A: 20%

Q: And the “rescue by NRG” value [2]?
A: not

Q: And the inhibition at 1 µM (TYK2)?
A: 51%

Q: And the inhibition at 1 µM (CAMK4)?
A: 0%

Q: And the “near complete inhibition of multiple phosphosites on EGFR” value [3]?
A: less than 10 nM

Q: And the inhibition at 1 µM (MST2)?
A: 84%

Q: What about the inhibition at 1 µM (FAK) of the same molecule?
A: -10%

Q: What about the “inhibition of feedback activated HER2/HER3 signaling” value ([4]; CHL-1, after 24 h DMSO or 500 nM lapatinib, then 24 h dose response) of the same molecule?
A: better able to inhibit feedback activated HER2/HER3 signaling

Q: What about the “inhibition of p-HER3 and PI3K/Akt pathway” value ([4]; CHL-1, dose response 24 h) of the same molecule?
A: better able to inhibit p-HER3 and thus the PI3K/Akt pathway

Q: With `CS(=O)(=O)CCNCc1ccc(-c2ccc3ncnc(Nc4ccc(OCc5cccc(F)c5)c(Cl)c4)c3c2)o1` [lapatinib] as the molecule, how does the inhibition of proliferation [5] read?
A: unable to inhibit the proliferation
